# Laboratory results published in patent publication US9662327B2 (AGIOS PHARMACEUTICALS, INC, priority 2011, dated 2017).
# Tests used:
# HT1080 cells = assay: Cellular assay for IDH1m inhibitors: inhibition of 2-HG production in HT1080 cells (LC-MS); format: cell-based; conditions: Homo sapiens, HT-1080, 48 hours
# Method: (§1) Cells (e.g., HT1080 or U87MG) are grown in T125 flasks in DMEM containing 10% FBS, 1× penicillin/streptomycin and 500 ug/mL G418. They are harvested by trypsin and seeded into 96 well white bottom plates at a density of 5000 cell/well in 100 ul/well in DMEM with 10% FBS. No cells are plates in columns 1 and 12. Cells are incubated overnight at 37 C in 5% CO2. The next day compounds are made up at 2× concentration and 100 ul are added to each cell well. The final concentration of DMSO is 0.2% and the DMSO control wells are plated in row G. The plates are then placed in the incubator for 48 hours. At 48 hours, 100 ul of media is removed from each well and analyzed by LC-MS for 2-HG concentrations. The cell plate is placed back in the incubator for another 24 hours. At 72 hours post compound addition, 10 mL/plate of Promega Cell Titer Glo reagent is thawed and mixed. The cell plate is removed from the incubator and allowed to equilibrate to room temperature. Then 100 ul of reagent is added to each well of media. The cell plate is then placed on an orbital shaker for 10 minutes and then allowed to sit at room temperature for 20 minutes. The plate is then read for luminescence with an integration time of 500 ms.
# U87R132H (U87MG) cells = assay: Cellular assay for IDH1m inhibitors: inhibition of 2-HG production in U87MG (U87R132H) cells (LC-MS); format: cell-based; conditions: Homo sapiens, U-87 MG, 48 hours
# Method: as §1
# IDH1 R132H = IDH1 R132H (Homo sapiens (Human), UniProt O75874, R132H); assay: Assays for IDH1 R132H Inhibitors (NADPH/aKG, resazurin detection); format: biochemical; conditions: IDH1 R132H enzyme, Table 3; read-out: R132H IC50
# Summary of the method: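 Substrate mix held 8 uM NADPH plus 2 mM aKG; buffer was 20 mM Tris pH 7.5 with 150 mM NaCl, 10 mM MgCl2, 0.03% BSA. After 50 min room-temperature reaction, NADPH remaining was detected with 30 μM resazurin mix over 5 min.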
# Sequence of IDH1 R132H (O75874 whole entry R132H): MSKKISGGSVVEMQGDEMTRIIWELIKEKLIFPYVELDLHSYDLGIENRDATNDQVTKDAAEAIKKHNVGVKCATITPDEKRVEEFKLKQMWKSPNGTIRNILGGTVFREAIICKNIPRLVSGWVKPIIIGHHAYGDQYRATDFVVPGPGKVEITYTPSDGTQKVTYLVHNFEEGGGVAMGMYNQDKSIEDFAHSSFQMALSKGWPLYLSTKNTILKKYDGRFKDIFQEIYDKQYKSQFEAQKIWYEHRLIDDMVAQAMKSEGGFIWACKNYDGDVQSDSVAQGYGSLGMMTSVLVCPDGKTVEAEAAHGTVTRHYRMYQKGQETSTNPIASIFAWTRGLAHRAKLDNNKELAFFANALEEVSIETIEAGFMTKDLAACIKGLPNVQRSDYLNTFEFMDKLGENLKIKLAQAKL
IC50 (HT1080 cells) [nM],IC50 (U87R132H (U87MG) cells) [nM],IC50 (IDH1 R132H) [nM],Structure (SMILES)
1000 to 10000,1000 to 10000,< 500,"[2H]C([2H])([2H])C([2H])(C([2H])([2H])[2H])C1([2H])CN(c2nc(C3CC3)c3c(c2C#N)CC(C)(C)OC3)CCN1C(=O)CC(F)(F)F (stereo in doubt) [Compound 451, (R)-8-cyclopropyl-6-(3-deuterio-3-(perdeuteriopropan-2-yl)-4-(3,3,3-trifluoropropanoyl)piperazin-1-yl)-3,3-dimethyl-3,4-dihydro-1H-pyrano[3,4-c]pyridine-5-carbonitrile]"
1000 to 10000,1000 to 10000,500 to 1000,"CCOC(=O)C1CN(c2nc(C3CC3)c3c(c2C#N)CC(C)(C)OC3)CCN1C(=O)Cc1cccs1 (centres unmarked) [Compound 421, Ethyl 4-(5-cyano-8-cyclopropyl-3,3-dimethyl-3,4-dihydro-1H-pyrano[3,4-c]pyridin-6-yl)-1-(2-(thiophen-2-yl)acetyl)piperazine-2-carboxylate]"
1000 to 10000,1000 to 10000,500 to 1000,"CNC(=O)CC(=O)N1CCN(c2nc(C3CC3)c3c(c2C#N)CC(C)(C)OC3)C[C@H]1C(C)C [Compound 422, (R)-3-(4-(5-cyano-8-cyclopropyl-3,3-dimethyl-3,4-dihydro-1H-pyrano[3,4-c]pyridin-6-yl)-2-isopropylpiperazin-1-yl)-N-methyl-3-oxopropanamide]"
1000 to 10000,500 to 1000,< 500,"CC(C)[C@@H]1CN(c2nc(C3CC3)c3c(c2C#N)CC(C)(C)OC3)CCN1C(=O)CC(F)(F)F [Compound 423, (R)-8-cyclopropyl-6-(3-isopropyl-4-(3,3,3-trifluoropropanoyl)piperazin-1-yl)-3,3-dimethyl-3,4-dihydro-1H-pyrano[3,4-c]pyridine-5-carbonitrile]"
500 to 1000,500 to 1000,< 500,"COCCCC(=O)N1CCN(c2nc(C3CC3)c3c(c2C#N)CC(C)(C)OC3)C[C@H]1C(C)C [Compound 424, (R)-8-cyclopropyl-6-(3-isopropyl-4-(4-methoxybutanoyl)piperazin-1-yl)-3,3-dimethyl-3,4-dihydro-1H-pyrano[3,4-c]pyridine-5-carbonitrile]"
< 500,< 500,< 500,"COCCC(=O)N1CCN(c2nc(C3CC3)c3c(c2C#N)CC(C)(C)OC3)CC1C1CC1 (centres unmarked) [Compound 425, 8-cyclopropyl-6-(3-cyclopropyl-4-(3-methoxypropanoyl)piperazin-1-yl)-3,3-dimethyl-3,4-dihydro-1H-pyrano[3,4-c]pyridine-5-carbonitrile]"
< 500,500 to 1000,< 500,"CC1(C)Cc2c(C#N)c(N3CCN(C(=O)c4ccoc4)C(C4CC4)C3)nc(C3CC3)c2CO1 (centres unmarked) [Compound 426, 8-cyclopropyl-6-(3-cyclopropyl-4-(furan-3-carbonyl)piperazin-1-yl)-3,3-dimethyl-3,4-dihydro-1H-pyrano[3,4-c]pyridine-5-carbonitrile]"
1000 to 10000,1000 to 10000,500 to 1000,"CC(C)[C@@H]1CN(c2nc(C3CC3)c3c(c2C#N)CC(C)(C)OC3)CCN1C(=O)c1ccon1 [Compound 427, (R)-8-cyclopropyl-6-(3-isopropyl-4-(isoxazole-3-carbonyl)piperazin-1-yl)-3,3-dimethyl-3,4-dihydro-1H-pyrano[3,4-c]pyridine-5-carbonitrile]"
1000 to 10000,< 500,< 500,"CC(=O)CCC(=O)N1CCN(c2nc(C3CC3)c3c(c2C#N)CC(C)(C)OC3)C[C@H]1C(C)C [Compound 428, (R)-8-cyclopropyl-6-(3-isopropyl-4-(4-oxopentanoyl)piperazin-1-yl)-3,3-dimethyl-3,4-dihydro-1H-pyrano[3,4-c]pyridine-5-carbonitrile]"
< 500,< 500,< 500,"CC(C)[C@@H]1CN(c2nc(C3CC3)c3c(c2C#N)CC(C)(C)OC3)CCN1C(=O)CCO [Compound 429, (R)-8-cyclopropyl-6-(4-(3-hydroxypropanoyl)-3-isopropylpiperazin-1-yl)-3,3-dimethyl-3,4-dihydro-1H-pyrano[3,4-c]pyridine-5-carbonitrile]"
500 to 1000,< 500,< 500,"CC1(C)Cc2c(C#N)c(N3CCN(C(=O)CC(F)(F)F)C(C4CC4)C3)nc(C3CC3)c2CO1 (centres unmarked) [Compound 430, 8-cyclopropyl-6-(3-cyclopropyl-4-(3,3,3-trifluoropropanoyl)piperazin-1-yl)-3,3-dimethyl-3,4-dihydro-1H-pyrano[3,4-c]pyridine-5-carbonitrile]"
1000 to 10000,1000 to 10000,500 to 1000,"COC(=O)NCCC(=O)N1CCN(c2nc(C3CC3)c3c(c2C#N)CC(C)(C)OC3)C[C@H]1C(C)C [Compound 431, (R)-methyl 3-(4-(5-cyano-8-cyclopropyl-3,3-dimethyl-3,4-dihydro-1H-pyrano[3,4-c]pyridin-6-yl)-2-isopropylpiperazin-1-yl)-3-oxopropylcarbamate]"
1000 to 10000,1000 to 10000,500 to 1000,"COCCC(=O)N1CCN(c2nc(C3CC3)c3c(c2C#N)CC(C)(C)OC3)C[C@H]1C [Compound 432, (R)-8-cyclopropyl-6-(4-(3-methoxypropanoyl)-3-methylpiperazin-1-yl)-3,3-dimethyl-3,4-dihydro-1H-pyrano[3,4-c]pyridine-5-carbonitrile]"
500 to 1000,< 500,,"CC(C)[C@@H]1CN(c2nc(C3CC3)c3c(c2C#N)CC(C)(C)OC3)CCN1C(=O)CCC(=O)OCCO [Compound 458, (R)-2-hydroxyethyl 4-(4-(5-cyano-8-cyclopropyl-3,3-dimethyl-3,4-dihydro-1H-pyrano[3,4-c]pyridin-6-yl)-2-isopropylpiperazin-1-yl)-4-oxobutanoate]"
< 500,< 500,,"C=CC(=O)N1CCc2c(C3CC3)nc(N3CCN(C(=O)C4CC4)[C@H](C4CC4)C3)c(C#N)c2C1 [Compound 482, (R)-6-acryloyl-3-(4-(cyclopropanecarbonyl)-3-cyclopropylpiperazin-1-yl)-1-cyclopropyl-5,6,7,8-tetrahydro-2,6-naphthyridine-4-carbonitrile]"
1000 to 10000,1000 to 10000,,"COCCC(=O)N1CCN(c2nc(C3CC3)c3c(c2C#N)CN(S(C)(=O)=O)CC3)C[C@H]1C1CC1 [Compound 487, (R)-1-cyclopropyl-3-(3-cyclopropyl-4-(3-methoxypropanoyl)piperazin-1-yl)-6-(methylsulfonyl)-5,6,7,8-tetrahydro-2,6-naphthyridine-4-carbonitrile]"
< 500,< 500,,"C#CC(=O)N1CCc2c(C#N)c(N3CCN(C(=O)CCOC)[C@H](C4CC4)C3)nc(C3CC3)c2C1 [Compound 488, (R)-1-cyclopropyl-3-(3-cyclopropyl-4-(3-methoxypropanoyl)piperazin-1-yl)-′7-propioloyl-5,6,7,8-tetrahydro-2,7-naphthyridine-4-carbonitrile]"
< 500,,< 500,"C#CC(=O)N1CCc2c(C#N)c(N3CCN(C(=O)C4CC4)[C@H](C4CC4)C3)nc(C3CC3)c2C1 [Compound 491, (R)-3-(4-(cyclopropanecarbonyl)-3-cyclopropylpiperazin-1-yl)-1-cyclopropyl-7-propioloyl-5,6,7,8-tetrahydro-2,7-naphthyridine-4-carbonitrile]"
1000 to 10000,,500 to 1000,C=C(F)C(=O)N1CCc2c(C3CC3)nc(N3CCN(C(=O)CCOC)[C@H](C4CC4)C3)c(C#N)c2C1 [Compound 492]
< 500,,500 to 1000,C#CC(=O)N1CCc2c(C#N)c(-c3ccc(C(=O)OC)cc3F)nc(C3CC3)c2C1 [Compound 495]
1000 to 10000,,500 to 1000,"N#CCC(=O)N1CCc2c(C#N)c(N3CCN(C(=O)C4CC4)[C@H](C4CC4)C3)nc(C3CC3)c2C1 [Compound 497, (R)-7-(2-cyanoacetyl)-3-(4-(cyclopropanecarbonyl)-3-cyclopropylpiperazin-1-yl)-1-cyclopropyl-5,6,7,8-tetrahydro-2,7-naphthyridine-4-carbonitrile]"
500 to 1000,,500 to 1000,"C#CC(=O)N1CCc2c(C#N)c(N3CCN(C(=O)CCO)[C@H](C4CC4)C3)nc(C3CC3)c2C1 [Compound 500, (R)-1-cyclopropyl-3-(3-cyclopropyl-4-(3-hydroxypropanoyl)piperazin-1-yl)-7-propioloyl-5,6,7,8-tetrahydro-2,7-naphthyridine-4-carbonitrile]"
500 to 1000,,500 to 1000,"C=C(C)C(=O)N1CCc2c(C#N)c(N3CCN(C(=O)CCOC)[C@H](C4CC4)C3)nc(C3CC3)c2C1 [Compound 502, (R)-1-cyclopropyl-3-(3-cyclopropyl-4-(3-methoxypropanoyl)piperazin-1-yl)-7-methacryloyl-5,6,7,8-tetrahydro-2,7-naphthyridine-4-carbonitrile]"
